Laboratory results published in article PMC6270063, “Novel Antimicrobial Peptide Dendrimers with Amphiphilic Surface and Their Interactions with Phospholipids — Insights from Mass Spectrometry” (Molecules, 2013).
≈ marks a conversion by molar mass, not a printed value. Where two headings read alike, the source gives them in different places.

Tests used:
human red blood cells = assay: Hemolysis assay; format: cell-based; settings: 1% hematocrit in PBS pH 7.4, 30 min at 23 °C, from Figure 4
Description: Dendrimer-induced hemolysis was measured as previously reported. Briefly, human red blood cells obtained from healthy volunteers, were suspended in phosphate buffered saline (PBS, pH 7.4). Prepared suspension of 1% hematocrit was incubated with serial concentration of dendrimers for 30 min at 23 °C. After centrifugation (4,000 rpm, 5 min) the absorbance of supernatant was measured at 540 nm (Spectrostar Omega, BMG Labtech, Ortenberg, Germany). A value of 100% hemolysis was determined by incubation of erythrocytes with double-distilled water (30 min at 23 °C). In a control experiment, cells were incubated in buffer without peptide and absorbance at 540 nm value was used as a blank:
A: Absorbance of the samples incubated with dendrimers;
Ab: Absorbance of the blank samples;
A100%: Absorbance of the reference;
Ac: Absorbance of red blood cells in PBS, hematocrit 1%.

E. coli ATCC 25922 [1] = tested on: E. coli ATCC 25922
Description: (§1) The bacteria Staphylococcus aureus ATCC 25923, Staphylococcus aureus ATCC 43300,Escherichia coli ATCC 25922 and Pseudomonas aeruginosa ATCC 27853 were cultivated on tryptone-soy agar (TSA; Oxoid) for 24 h at 37 °C. Broth microdilution susceptibility tests were performed as described in the Committee Laboratory Standards (CLSI) reference method M07-A8 [41]. Bacteria inocula (5 µL) containing 10^6 CFU/mL were used. The final concentration of dendrimers ranged from 256 to 2 µg/mL, polymyxin B and penicillin G from 8 to 0,15 µg/mL (or 5.8 to 0.1 µM and 21.5 to 0.4 µM, respectively for polymyxin B and penicillin G) were the reference compounds. The plates were incubated at 35 °C and were read after 18 or 24 h depending on the bacterial strain. Minimal Inhibitory Concentrations (MICs) were defined as the lowest drug concentration that reduced the growth by 100%.

S. aureus ATCC 43300 = tested on: S. aureus ATCC 43300
Description: as §1

P. aeruginosa ATCC 27853 = tested on: P. aeruginosa ATCC 27853
Description: as §1

S. aureus ATCC 25923 = assay: microbe, parasite or virus in culture
Description: as §1

E. coli ATCC 25922 [2] = format: cell-based, Escherichia coli; settings: for Activity (MIC) at 200 µM Na+ or K+ concentration / Change of bioactivity on increase of Ca2+ and Mg2+ concentration / Sensitivity of MIC to increase of Na+ or K+ concentration: E. coli ATCC 25922; for Activity (MIC) at 200 µM Na+ or K+ concentration / Sensitivity of MIC to increase of Na+ or K+ concentration: triplicate; for Change of bioactivity on increase of Ca2+ and Mg2+ concentration: Ca2+ and Mg2+ up to 5 mM; for Sensitivity of MIC to increase of Na+ or K+ concentration: Na+ or K+ up to 100 µM, CAMHB with added NaCl or KCl
Description: as §1
The effect of salt concentration on the antimicrobial activity of two dendrimers was tested by determining the MICs under a variety of cations concentrations. CAMHB used in the assay was altered by the addition of salt. NaCl or KCl were added to the media to a final concentrations of 10, 50, 100, 200, 500 mM, wheareas CaCl2 or MgCl2 were added to the media to a final concentrations of 0.5, 1.5, 2.5, 5.5, 10.5, and 20.5 mM. Additionally, similar test was performed using MHB (without Ca^2+, Mg^2+) for divalent cations Ca^2+ and Mg^2+. Experiment was performed in triplicate.

[3] = broth microdilution CLSI M07-A8, CAMHB with 0.5 mM Ca2+ and Mg2+, 35 °C, 18 or 24 h
[4] = methicillin-resistant strain, broth microdilution CLSI M07-A8, CAMHB with 0.5 mM Ca2+ and Mg2+, 35 °C, 18 or 24 h
[5] = broth microdilution CLSI M07-A8, CAMHB with 0.5 mM Ca2+ and Mg2+, no K+ and Na+, 35 °C, read after 18 or 24 h, MIC = lowest concentration reducing growth by 100%

Row | Structure (SMILES) | Minimal inhibitory concentration (MIC), E. coli ATCC 25922 (E. coli ATCC 25922 [1]; [3]) | Minimal inhibitory concentration (MIC), S. aureus ATCC 43300 (S. aureus ATCC 43300; [4]) | Minimal inhibitory concentration (MIC), P. aeruginosa ATCC 27853 (P. aeruginosa ATCC 27853; [3]) | Minimal inhibitory concentration (MIC), S. aureus ATCC 25923 (S. aureus ATCC 25923; [5]) | Minimal inhibitory concentration (MIC), E. coli ATCC 25922 (E. coli ATCC 25922 [1]; ATCC 25922, 24 h) | Minimal inhibitory concentration (MIC), S. aureus ATCC 43300 (S. aureus ATCC 43300; ATCC 43300, 24 h) | Minimal inhibitory concentration (MIC), P. aeruginosa ATCC 27853 (P. aeruginosa ATCC 27853; ATCC 27853, 24 h) | Minimal inhibitory concentration (MIC), S. aureus ATCC 25923 (S. aureus ATCC 25923; ATCC 25923, 24 h) | other results
1 | NCCCC[C@H](NC(=O)OCc1ccccc1Cl)C(=O)NCCNC(=O)CCN(CCC[C@@H](C(=O)Nc1cccnc1)N(CCC(=O)NCCNC(=O)[C@H](CCCCN)NC(=O)OCc1ccccc1Cl)CCC(=O)NCCNC(=O)[C@H](CCCCN)NC(=O)OCc1ccccc1Cl)CCC(=O)NCCNC(=O)[C@H](CCCCN)NC(=O)OCc1ccccc1Cl [Dendrimer 3a] | >252 µM | >252 µM | >252 µM | 2.85 µM (≈ 5.28 µg/mL) | – | – | – | – | Hemotoxicity (level) (human red blood cells): much lower toxicity and low
2 | NCCCC[C@H](NC(=O)OCc1ccccc1Cl)C(=O)NCCNC(=O)CCN(CCC[C@@H](C(=O)NCCc1c[nH]c2ccccc12)N(CCC(=O)NCCNC(=O)[C@H](CCCCN)NC(=O)OCc1ccccc1Cl)CCC(=O)NCCNC(=O)[C@H](CCCCN)NC(=O)OCc1ccccc1Cl)CCC(=O)NCCNC(=O)[C@H](CCCCN)NC(=O)OCc1ccccc1Cl [Dendrimer 3b] | 12.1 µM (≈ 23.2 µg/mL) | 12.1 µM (≈ 23.2 µg/mL) | 51 µM (≈ 97.8 µg/mL) | 1.87 µM (≈ 3.59 µg/mL) | – | – | – | – | MIC in presence of Ca2+ (E. coli ATCC 25922 [2]; ATCC 25922, 24 h): 119.8 µM; Activity (MIC) at 200 µM Na+ or K+ concentration (E. coli ATCC 25922 [2]): retained much activity; Change of bioactivity on increase of Ca2+ and Mg2+ concentration (E. coli ATCC 25922 [2]): slow decrease; Sensitivity of MIC to increase of Na+ or K+ concentration (E. coli ATCC 25922 [2]): not sensitive
3 | NCCCC[C@H](NC(=O)OCc1ccccc1Cl)C(=O)NCCNC(=O)CCN(CCC[C@@H](C(=O)NCCc1cnc[nH]1)N(CCC(=O)NCCNC(=O)[C@H](CCCCN)NC(=O)OCc1ccccc1Cl)CCC(=O)NCCNC(=O)[C@H](CCCCN)NC(=O)OCc1ccccc1Cl)CCC(=O)NCCNC(=O)[C@H](CCCCN)NC(=O)OCc1ccccc1Cl [Dendrimer 3c] | – | – | – | – | 141 µM (≈ 264 µg/mL) | 141 µM (≈ 264 µg/mL) | 141 µM (≈ 264 µg/mL) | 24.7 µM (≈ 46.2 µg/mL) | –
4 | CCCCCCCCCCCCNC(=O)[C@H](CCCN(CCC(=O)NCCNC(=O)[C@H](CCCCN)NC(=O)OCc1ccccc1Cl)CCC(=O)NCCNC(=O)[C@H](CCCCN)NC(=O)OCc1ccccc1Cl)N(CCC(=O)NCCNC(=O)[C@H](CCCCN)NC(=O)OCc1ccccc1Cl)CCC(=O)NCCNC(=O)[C@H](CCCCN)NC(=O)OCc1ccccc1Cl [Dendrimer 3d] | – | – | – | – | 1.85 µM (≈ 3.59 µg/mL) | – | – | 1.85 µM (≈ 3.59 µg/mL) | –
5 | N[C@@H](CCCCNC(=O)OCc1ccccc1Cl)C(=O)NCCNC(=O)CCN(CCC[C@@H](C(=O)Nc1cccnc1)N(CCC(=O)NCCNC(=O)[C@@H](N)CCCCNC(=O)OCc1ccccc1Cl)CCC(=O)NCCNC(=O)[C@@H](N)CCCCNC(=O)OCc1ccccc1Cl)CCC(=O)NCCNC(=O)[C@@H](N)CCCCNC(=O)OCc1ccccc1Cl [Dendrimer 3e] | 142 µM (≈ 263 µg/mL) | 142 µM (≈ 263 µg/mL) | 142 µM (≈ 263 µg/mL) | 16.6 µM (≈ 30.7 µg/mL) | – | – | – | – | Hemotoxicity (level) (human red blood cells): highest hemotoxicity and high
6 | N[C@@H](CCCCNC(=O)OCc1ccccc1Cl)C(=O)NCCNC(=O)CCN(CCC[C@@H](C(=O)NCCc1c[nH]c2ccccc12)N(CCC(=O)NCCNC(=O)[C@@H](N)CCCCNC(=O)OCc1ccccc1Cl)CCC(=O)NCCNC(=O)[C@@H](N)CCCCNC(=O)OCc1ccccc1Cl)CCC(=O)NCCNC(=O)[C@@H](N)CCCCNC(=O)OCc1ccccc1Cl [Dendrimer 3f] | 7.9 µM (≈ 15.2 µg/mL) | 20.4 µM (≈ 39.1 µg/mL) | 60 µM (≈ 115 µg/mL) | 0.93 µM (≈ 1.78 µg/mL) | – | – | – | – | MIC in presence of Mg2+ (E. coli ATCC 25922 [2]; ATCC 25922, 24 h): 119.8 µM; Activity (MIC) at 200 µM Na+ or K+ concentration (E. coli ATCC 25922 [2]): retained much activity; Change of bioactivity on increase of Ca2+ and Mg2+ concentration (E. coli ATCC 25922 [2]): slow decrease; Sensitivity of MIC to increase of Na+ or K+ concentration (E. coli ATCC 25922 [2]): not sensitive
7 | N[C@@H](CCCCNC(=O)OCc1ccccc1Cl)C(=O)NCCNC(=O)CCN(CCC[C@@H](C(=O)NCCc1cnc[nH]1)N(CCC(=O)NCCNC(=O)[C@@H](N)CCCCNC(=O)OCc1ccccc1Cl)CCC(=O)NCCNC(=O)[C@@H](N)CCCCNC(=O)OCc1ccccc1Cl)CCC(=O)NCCNC(=O)[C@@H](N)CCCCNC(=O)OCc1ccccc1Cl [Dendrimer 3g] | – | – | – | – | 211 µM (≈ 394 µg/mL) | 16.4 µM (≈ 30.7 µg/mL) | 211 µM (≈ 394 µg/mL) | 51 µM (≈ 95.3 µg/mL) | –
8 | CCCCCCCCCCCCNC(=O)[C@H](CCCN(CCC(=O)NCCNC(=O)[C@@H](N)CCCCNC(=O)OCc1ccccc1Cl)CCC(=O)NCCNC(=O)[C@@H](N)CCCCNC(=O)OCc1ccccc1Cl)N(CCC(=O)NCCNC(=O)[C@@H](N)CCCCNC(=O)OCc1ccccc1Cl)CCC(=O)NCCNC(=O)[C@@H](N)CCCCNC(=O)OCc1ccccc1Cl [Dendrimer 3h] | – | – | – | – | 7.9 µM (≈ 15.4 µg/mL) | 1.85 µM (≈ 3.59 µg/mL) | 32 µM (≈ 62.2 µg/mL) | 3.7 µM (≈ 7.19 µg/mL) | –
9 | CC1(C)S[C@@H]2[C@H](NC(=O)Cc3ccccc3)C(=O)N2[C@H]1C(=O)O [Penicillin G, reference compound] | – | – | – | – | – | – | – | – | MIC (S. aureus ATCC 25923; Staphylococcus aureus, ATCC25923, read-out: Minimal inhibitory concentration (MIC), S. aureus ATCC 25923): 6.6 µM (≈ 2.21 µg/mL)
